Reference: US20260242419A1, “A CYCLIC PEPTIDE FOR TRAPPING INTERLEUKIN-1 BETA” (Merck Sharp & Dohme LLC, priority 2023, published 2026)
Starred links: 1 amine or outer side, 2 acyl side, 3 side chain; linkers in the order of their positions; H or OH if unused. Non-standard residues stand in square brackets, D forms with d. Residues, ends and D or L forms follow the SMILES beside them. Phe(4-(5-CO2H-2-pyrimidyl)) = N[C@@H](Cc1ccc(-c2ncc(C(=O)O)cn2)cc1)C(=O)O; X39 = CNc1ncc(-c2ccc(C[C@H]3CCN([*:1])[C@H]3C(=O)[*:2])cc2)cn1; dPro(4R-(4-pyridylmethyl)) = O=C(O)[C@H]1C[C@@H](Cc2ccncc2)CN1; Ala(piperidin-4-yl) = O=C([C@H](CC1CCN([*:3])CC1)N[*:1])[*:2]; X22 = Nc1ncc(-c2ccc(C[C@H]3CCN([*:1])[C@H]3C(=O)[*:2])cc2)cn1; Trp(βS-Me,4-F) = C[C@@H](c1c[nH]c2cccc(F)c12)[C@H](N)C(=O)O; Bip(4'-COOH) = N[C@@H](Cc1ccc(-c2ccc(C(=O)O)cc2)cc1)C(=O)O; Ala(1-bicyclo(1.1.1)pentyl) = N[C@@H](CC12CC(C1)C2)C(=O)O; dPro(4R-Bzl(4-F)) = O=C(O)[C@H]1C[C@@H](Cc2ccc(F)cc2)CN1; dPro(3S-(4-F-Bn)) = O=C(O)[C@@H]1NCC[C@@H]1Cc1ccc(F)cc1; X19 = O=C([C@H]1C[C@@H](Cc2ccc(Br)cc2)CN1[*:1])[*:2]; X41 = O=C([C@@H](N[*:1])[C@@H](O)c1ccncc1)[*:2]; X5 = O=C([C@H]1C[C@@H](Cc2ccccc2)CN1[*:1])[*:2]; Ala(pyrimidin-5-yl) = N[C@@H](Cc1cncnc1)C(=O)O; Phe(4-COOH) = N[C@@H](Cc1ccc(C(=O)O)cc1)C(=O)O; Pro(cis-4-F) = O=C(O)[C@@H]1C[C@H](F)CN1; Ala(4-THP) = N[C@@H](CC1CCOCC1)C(=O)O; d(αMeF) = C[C@@](N)(Cc1ccccc1)C(=O)O; d(αMeD) = C[C@@](N)(CC(=O)O)C(=O)O; 4Pal = N[C@@H](Cc1ccncc1)C(=O)O; aThr = C[C@H](O)[C@H](N)C(=O)O; Cba = N[C@@H](CC1CCC1)C(=O)O; αMeK = C[C@](N)(CCCCN)C(=O)O; Dab = NCC[C@H](N)C(=O)O; Aib = CC(C)(N)C(=O)O

biological target: T1, IL-1β (Homo sapiens, UniProt P01584); assay: IL-6 assay in MRC5 cells: inhibition of IL-1β induced IL-6 secretion (AlphaLISA); format: cell-based; settings: inhibition of IL-1β induced IL-6 secretion in MRC5 cells; compound pre-incubated 1 hour with recombinant human IL-1β; read-out: MRC5 IC50
T1 construct: purchased BioLegend 579404
Outline: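 Compound was pre-incubated 1 h at ambient temperature with recombinant human IL-1β at 2λ EC80 before adding human lung fibroblast MRC5 cells (3000/well) in EMEM with 0.025% BSA. After overnight culture at 37 °C, 5% CO2, secreted IL-6 in conditioned medium was measured by AlphaLISA; IC50 from 4-parameter logistic fits.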

T1 sequence (P01584 117-269): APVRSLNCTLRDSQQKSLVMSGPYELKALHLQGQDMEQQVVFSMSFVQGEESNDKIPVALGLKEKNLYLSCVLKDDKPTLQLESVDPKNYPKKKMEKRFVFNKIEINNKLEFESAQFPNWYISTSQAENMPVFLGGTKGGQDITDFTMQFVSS

IC50 [pM]	SMILES
17	C[C@@H](c1c[nH]c2cccc(F)c12)[C@@H]1NC(=O)[C@@H]2C[C@H](F)CN2C(=O)CNC(=O)[C@H](Cc2ccc(C(=O)O)cc2)NC(=O)[C@H](Cc2ccncc2)NC(=O)[C@H](Cc2ccc(-c3ccc(C(=O)O)cc3)cc2)NC(=O)[C@H]2[C@@H](Cc3ccc(F)cc3)CCN2C(=O)CNC(=O)[C@H](CCN)NC(=O)[C@H](CCC(N)=O)NC(=O)[C@H]([C@@H](O)c2ccncc2)NC(=O)[C@@](C)(CC(=O)O)NC(=O)[C@H](Cc2c[nH]c3ccccc23)NC(=O)[C@H](CO)NC(=O)C(C)(C)NC1=O [Example 263] (cyclo([Bip(4'-COOH)][4Pal][Phe(4-COOH)]G[Pro(cis-4-F)][Trp(βS-Me,4-F)][Aib]SW[d(αMeD)][X41]Q[Dab]G[dPro(3S-(4-F-Bn))]))
21	C[C@H](O)[C@@H]1NC(=O)[C@@](C)(Cc2ccccc2)NC(=O)[C@H](Cc2c[nH]c3ccccc23)NC(=O)[C@H](CO)NC(=O)C(C)(C)NC(=O)[C@H]([C@@H](C)c2c[nH]c3cccc(F)c23)NC(=O)[C@@H]2C[C@H](F)CN2C(=O)CNC(=O)[C@H](Cc2ccc(C(=O)O)cc2)NC(=O)[C@H](Cc2ccncc2)NC(=O)[C@H](Cc2ccc(-c3ccc(C(=O)O)cc3)cc2)NC(=O)[C@H]2C[C@@H](Cc3ccncc3)CN2C(=O)CNC(=O)[C@H](CCN)NC(=O)[C@H](CCC(N)=O)NC1=O [Example 257] (cyclo([Bip(4'-COOH)][4Pal][Phe(4-COOH)]G[Pro(cis-4-F)][Trp(βS-Me,4-F)][Aib]SW[d(αMeF)][aThr]Q[Dab]G[dPro(4R-(4-pyridylmethyl))]))

same assay, conditions: inhibition of IL-1β induced IL-6 secretion in MRC5 cells; read-out: MRC5 IC50

IC50 [pM]	SMILES
16	C[C@@H](c1c[nH]c2cccc(F)c12)[C@@H]1NC(=O)[C@@H]2C[C@H](F)CN2C(=O)CNC(=O)[C@H](Cc2ccc(C(=O)O)cc2)NC(=O)[C@H](Cc2ccncc2)NC(=O)[C@H](Cc2ccc(-c3ccc(C(=O)O)cc3)cc2)NC(=O)[C@H]2C[C@@H](Cc3ccc(F)cc3)CN2C(=O)CNC(=O)[C@H](CCN)NC(=O)[C@H](CCC(N)=O)NC(=O)[C@H](CC2CCOCC2)NC(=O)C(C)(C)NC(=O)[C@H](Cc2c[nH]c3ccccc23)NC(=O)[C@H](CCC(=O)O)NC(=O)C(C)(C)NC1=O [Example 118] (cyclo([Bip(4'-COOH)][4Pal][Phe(4-COOH)]G[Pro(cis-4-F)][Trp(βS-Me,4-F)][Aib]EW[Aib][Ala(4-THP)]Q[Dab]G[dPro(4R-Bzl(4-F))]))
26	C[C@@H](c1c[nH]c2cccc(F)c12)[C@@H]1NC(=O)[C@@H]2C[C@H](F)CN2C(=O)CNC(=O)[C@H](Cc2ccc(C(=O)O)cc2)NC(=O)[C@H](Cc2ccncc2)NC(=O)[C@H](Cc2ccc(-c3ccc(C(=O)O)cc3)cc2)NC(=O)[C@H]2C[C@@H](Cc3ccccc3)CN2C(=O)CNC(=O)[C@H](CO)NC(=O)[C@H](CCC(N)=O)NC(=O)[C@H](Cc2cncnc2)NC(=O)C(C)(C)NC(=O)[C@H](Cc2c[nH]c3ccccc23)NC(=O)[C@H](CCC(=O)O)NC(=O)C(C)(C)NC1=O [Example 30] (cyclo([Bip(4'-COOH)][4Pal][Phe(4-COOH)]G[Pro(cis-4-F)][Trp(βS-Me,4-F)][Aib]EW[Aib][Ala(pyrimidin-5-yl)]QSG[X5]))
18	C[C@@H](c1c[nH]c2cccc(F)c12)[C@@H]1NC(=O)[C@@H]2C[C@H](F)CN2C(=O)CNC(=O)[C@H](Cc2ccc(C(=O)O)cc2)NC(=O)[C@H](CC23CC(C2)C3)NC(=O)[C@H](Cc2ccc(-c3ccc(C(=O)O)cc3)cc2)NC(=O)[C@H]2C[C@@H](Cc3ccncc3)CN2C(=O)CNC(=O)[C@H](CCN)NC(=O)[C@H](CCC(N)=O)NC(=O)[C@H](CC2CCC2)NC(=O)[C@@](C)(CC(=O)O)NC(=O)[C@H](Cc2c[nH]c3ccccc23)NC(=O)[C@H](CO)NC(=O)C(C)(C)NC1=O [Example 348] (cyclo([Bip(4'-COOH)][Ala(1-bicyclo(1.1.1)pentyl)][Phe(4-COOH)]G[Pro(cis-4-F)][Trp(βS-Me,4-F)][Aib]SW[d(αMeD)][Cba]Q[Dab]G[dPro(4R-(4-pyridylmethyl))]))
26	C[C@@H](c1c[nH]c2cccc(F)c12)[C@@H]1NC(=O)[C@@H]2C[C@H](F)CN2C(=O)CNC(=O)[C@H](Cc2ccc(C(=O)O)cc2)NC(=O)[C@H](Cc2ccncc2)NC(=O)[C@H](Cc2ccc(-c3ccc(C(=O)O)cc3)cc2)NC(=O)[C@H]2C[C@@H](Cc3ccc(Br)cc3)CN2C(=O)CNC(=O)[C@H](CCN)NC(=O)[C@H](CCC(N)=O)NC(=O)[C@H](Cc2cncnc2)NC(=O)C(C)(C)NC(=O)[C@H](Cc2c[nH]c3ccccc23)NC(=O)[C@H](CCC(=O)O)NC(=O)C(C)(C)NC1=O [Example 143] (cyclo([Bip(4'-COOH)][4Pal][Phe(4-COOH)]G[Pro(cis-4-F)][Trp(βS-Me,4-F)][Aib]EW[Aib][Ala(pyrimidin-5-yl)]Q[Dab]G[X19]))
29	C[C@@H](c1c[nH]c2cccc(F)c12)[C@@H]1NC(=O)[C@@H]2C[C@H](F)CN2C(=O)CNC(=O)[C@H](Cc2ccc(C(=O)O)cc2)NC(=O)[C@H](Cc2ccncc2)NC(=O)[C@H](Cc2ccc(-c3ccc(C(=O)O)cc3)cc2)NC(=O)[C@H]2C[C@@H](Cc3ccc(F)cc3)CN2C(=O)CNC(=O)[C@H](CCN)NC(=O)[C@H](CCC(N)=O)NC(=O)[C@H](Cc2cncnc2)NC(=O)C(C)(C)NC(=O)[C@H](Cc2c[nH]c3ccccc23)NC(=O)[C@H](CC(=O)O)NC(=O)C(C)(C)NC1=O [Example 17] (cyclo([Bip(4'-COOH)][4Pal][Phe(4-COOH)]G[Pro(cis-4-F)][Trp(βS-Me,4-F)][Aib]DW[Aib][Ala(pyrimidin-5-yl)]Q[Dab]G[dPro(4R-Bzl(4-F))]))
18	C[C@@H](c1c[nH]c2cccc(F)c12)[C@@H]1NC(=O)[C@@H]2C[C@H](F)CN2C(=O)CNC(=O)[C@H](Cc2ccc(C(=O)O)cc2)NC(=O)[C@H](Cc2ccncc2)NC(=O)[C@H](Cc2ccc(-c3ccc(C(=O)O)cc3)cc2)NC(=O)[C@H]2[C@@H](Cc3ccc(-c4cnc(N)nc4)cc3)CCN2C(=O)CNC(=O)[C@H](CCN)NC(=O)[C@H](CCC(N)=O)NC(=O)[C@H](Cc2cncnc2)NC(=O)C(C)(C)NC(=O)[C@H](Cc2c[nH]c3ccccc23)NC(=O)[C@H](CCC(=O)O)NC(=O)C(C)(C)NC1=O [Example 59] (cyclo([Bip(4'-COOH)][4Pal][Phe(4-COOH)]G[Pro(cis-4-F)][Trp(βS-Me,4-F)][Aib]EW[Aib][Ala(pyrimidin-5-yl)]Q[Dab]G[X22]))
24	C[C@@H](c1c[nH]c2cccc(F)c12)[C@@H]1NC(=O)[C@@H]2C[C@H](F)CN2C(=O)CNC(=O)[C@H](Cc2ccc(C(=O)O)cc2)NC(=O)[C@H](CC23CC(C2)C3)NC(=O)[C@H](Cc2ccc(-c3ncc(C(=O)O)cn3)cc2)NC(=O)[C@H]2C[C@@H](Cc3ccncc3)CN2C(=O)CNC(=O)[C@H](CCN)NC(=O)[C@H](CCC(N)=O)NC(=O)[C@H](Cc2cncnc2)NC(=O)C(C)(C)NC(=O)[C@H](Cc2c[nH]c3ccccc23)NC(=O)[C@H](CO)NC(=O)C(C)(C)NC1=O [Example 198] (cyclo([Phe(4-(5-CO2H-2-pyrimidyl))][Ala(1-bicyclo(1.1.1)pentyl)][Phe(4-COOH)]G[Pro(cis-4-F)][Trp(βS-Me,4-F)][Aib]SW[Aib][Ala(pyrimidin-5-yl)]Q[Dab]G[dPro(4R-(4-pyridylmethyl))]))
21	CNc1ncc(-c2ccc(C[C@H]3CCN4C(=O)CNC(=O)[C@H](CCN)NC(=O)[C@H](CCC(N)=O)NC(=O)[C@H](Cc5cncnc5)NC(=O)C(C)(C)NC(=O)[C@H](Cc5c[nH]c6ccccc56)NC(=O)[C@H](CCC(=O)O)NC(=O)C(C)(C)NC(=O)[C@H]([C@@H](C)c5c[nH]c6cccc(F)c56)NC(=O)[C@@H]5C[C@H](F)CN5C(=O)CNC(=O)[C@H](Cc5ccc(C(=O)O)cc5)NC(=O)[C@H](Cc5ccncc5)NC(=O)[C@H](Cc5ccc(-c6ccc(C(=O)O)cc6)cc5)NC(=O)[C@@H]34)cc2)cn1 [Example 54] (cyclo([Bip(4'-COOH)][4Pal][Phe(4-COOH)]G[Pro(cis-4-F)][Trp(βS-Me,4-F)][Aib]EW[Aib][Ala(pyrimidin-5-yl)]Q[Dab]G[X39]))
21	C[C@H](O)[C@@H]1NC(=O)C(C)(C)NC(=O)[C@H]([C@@H](C)c2c[nH]c3cccc(F)c23)NC(=O)[C@@H]2C[C@H](F)CN2C(=O)CNC(=O)[C@H](Cc2ccc(C(=O)O)cc2)NC(=O)[C@H](Cc2ccncc2)NC(=O)[C@H](Cc2ccc(-c3ccc(C(=O)O)cc3)cc2)NC(=O)[C@H]2C[C@@H](Cc3ccc(F)cc3)CN2C(=O)CNC(=O)[C@H](CCN)NC(=O)[C@H](CCC(N)=O)NC(=O)[C@H](Cc2cncnc2)NC(=O)[C@](C)(CCCCN)NC(=O)[C@H](Cc2c[nH]c3ccccc23)NC1=O [Example 138] (cyclo([Bip(4'-COOH)][4Pal][Phe(4-COOH)]G[Pro(cis-4-F)][Trp(βS-Me,4-F)][Aib][aThr]W[αMeK][Ala(pyrimidin-5-yl)]Q[Dab]G[dPro(4R-Bzl(4-F))]))
39	C[C@@H](c1c[nH]c2cccc(F)c12)[C@@H]1NC(=O)[C@@H]2C[C@H](F)CN2C(=O)CNC(=O)[C@H](Cc2ccc(C(=O)O)cc2)NC(=O)[C@H](CC23CC(C2)C3)NC(=O)[C@H](Cc2ccc(-c3ccc(C(=O)O)cc3)cc2)NC(=O)[C@H]2C[C@@H](Cc3ccc(F)cc3)CN2C(=O)CNC(=O)[C@H](CCN)NC(=O)[C@H](CCC(N)=O)NC(=O)[C@H](CC2CCNCC2)NC(=O)[C@](C)(CCCCN)NC(=O)[C@H](Cc2c[nH]c3ccccc23)NC(=O)[C@H](CCC(=O)O)NC(=O)C(C)(C)NC1=O [Example 166] (cyclo([Bip(4'-COOH)][Ala(1-bicyclo(1.1.1)pentyl)][Phe(4-COOH)]G[Pro(cis-4-F)][Trp(βS-Me,4-F)][Aib]EW[αMeK][Ala(piperidin-4-yl)]Q[Dab]G[dPro(4R-Bzl(4-F))]))
